Laboratory results from US8242151B2, “Tricyclic compounds” (Kyowa Hakko Kirin Co., Ltd., priority 2007, dated 2012).
Blank lines part the entries; values can stand above or below the molecule they belong to.

Key:
[1] = molecular target: T1, GAL4-PPARγ chimeric nuclear receptor (human PPARγ ligand binding region) (Homo sapiens, UniProt P37231); test: Transactivation assay of PPARγ by transient gene transfer (GAL4-PPARγ luciferase reporter); assay type: cell-based; details: HEK293EBNA cells, 24 hr; concentration showing 50% of efficacy; activity relative to pioglitazone 10 μmol/L = 100%
T1 construct: expressed in transfected cells; host or cells: HEK293EBNA cells
T1 sequence (P37231 174-475 isoform P37231-2): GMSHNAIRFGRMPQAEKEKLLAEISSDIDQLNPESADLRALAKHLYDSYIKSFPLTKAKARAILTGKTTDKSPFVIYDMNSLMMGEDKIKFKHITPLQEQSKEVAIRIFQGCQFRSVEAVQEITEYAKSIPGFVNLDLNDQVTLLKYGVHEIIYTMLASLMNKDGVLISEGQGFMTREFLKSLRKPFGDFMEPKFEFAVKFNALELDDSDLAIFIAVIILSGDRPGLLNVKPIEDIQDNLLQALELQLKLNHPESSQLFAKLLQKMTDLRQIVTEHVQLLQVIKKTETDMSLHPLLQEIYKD
Description: The agonist activity of compound (I) to PPARγ was determined by a transactivation assay method using a chimeric nuclear receptor of a DNA binding region of a yeast transcription factor GAL4 and a PPARγ ligand binding region. Specifically, the PPARγ agonist activity of compound (I) was evaluated by the following method based on the method of Lehmann et al. (J Biol. Chem., 1995, vol. 270, page 12953).
HEK293EBNA cells cultured in Dulbecco's Modified Eagle medium (Invitrogen) containing 10 v/v % fetal calf serum (Invitrogen) were used. 30 mL of the above-mentioned cells (density: 1×10^5 cells/mL) were inoculated in a […] culture dish (Iwaki Glass), and cultured overnight. Using SuperFect Transfection Reagent (QIAGEN), a plasmid expressing a GAL4-PPARγ chimeric nuclear receptor fusing 174-475 amino acids, which are human PPARγ ligand binding region, and 1-147 amino acids, which are GAL4 DNA binding region, and a reporter plasmid expressing a GAL4 responsive luciferase were transiently introduced into the cells at a proportion of 4:1. After 5 hr from gene introduction, the cells were detached from the culture dish, and the detached cells (density: 2×10^4 cells/mL) were inoculated by 100 μL in each well of a 96 well white plate (SUMITOMO BAKELITE), and cultured overnight. The medium was removed, compound (I) diluted in various concentrations with serum-free Dulbecco's Modified Eagle medium was added by 100 μL, and the mixture was reacted under a 5% carbon dioxide gas stream (5% CO2) at 37° C. for 24 hr. On the other hand, as a positive control, 10 μmol/L of pioglitazone (100 μL) was added, and the mixture was reacted under a 5% carbon dioxide gas stream (5% CO2) at 37° C. for 24 hr. As a substrate of luciferase, 100 μL of Steady-Glo (Promega) was added to each well and the mixture was thoroughly stirred. Immediately thereafter, the chemical luminescence due to luciferase was measured using TopCount NTX (Packard).
The agonist activity (activity rate (%)) of compound (I) to PPARγ was calculated according to the following formula, as a relative activity when the agonist activity on addition of pioglitazone (10 μmol/L) was 100%.

[2] = test system: spontaneously hypertensive rats (SHR); test: Antihypertensive action by telemetry method; assay type: in vivo, rat; details: oral once a day for 4 days, 24 hr averages
Excerpt: A telemetry transmitter was indwelled in the abdominal artery of spontaneously hypertensive rats (SHR), and the blood pressure and heart rate were monitored. The rats were acclimated and reared for 4 weeks or more, and only the rats with hypertension were used for the test. Before drug administration, the rats were grouped such that the blood pressure and heart rate of each rat would be of the same levels between the groups. A solvent (0.5% methylcellulose solution) and a test compound were repeatedly administered orally once a day for 4 days. The average systolic blood pressure for 24 hr, average diastolic blood pressure for 24 hr and average heart rate for 24 hr were calculated on each administration day.

[3] = test system: spontaneously hypertensive rats (SHR); test: Antihypertensive action by tail cuff method; assay type: in vivo, rat; details: oral once a day for 7 days, about 4 to 9 hr after final administration
Description: 18- to 22-week-old spontaneously hypertensive rats (SHR) were used.
Before drug administration, the body weight, blood pressure and heart rate of each rat were measured, and the rats were grouped such that these values are almost the same between groups. A solvent (0.5% methylcellulose solution) and a test compound were repeatedly administered orally once a day for 7 days. At about 4 to 9 hr after the final administration, systolic blood pressure and heart rate were non-invasively measured according to the following.
The rats were placed in a cylindrical restrainer, heated to 37° C., and blood pressure and heart rate were measured under resting state using a Tail Cuff Method. For the measurement, a non-invasive blood pressure measurement apparatus (PS-600, Riken Kaihatsu, Tokyo) was used. The blood pressure and heart rate of each rat was measured 5 times, and the average was taken as the value of each rat.

Structure (SMILES): CCc1nc2c(C)cc(C)nc2n1Cc1ccc2c(c1)CCc1ccccc1/C2=C(/C)c1nnn[nH]1 [Compound 45, (E)-2-(2-ethyl-5,7-dimethyl-3H-imidazo[4,5-b]pyridin-3-yl)methyl-5-[1-(1H-tetrazol-5-yl)ethylidene]-10,11-dihydro-5H-dibenzo[a,d]cycloheptene]
EC50 [1]: 1.09 µM | antihypertensive action (blood pressure, telemetry) [2]: antihypertensive action

Structure (SMILES): CCc1nc2c(Cl)ccnc2n1Cc1ccc2c(c1)COc1ccccc1/C2=C(/C)c1noc(=O)[nH]1 [Compound 137, (Z)-8-(7-chloro-2-ethyl-3H-imidazo[4,5-b]pyridin-3-yl)methyl-11-[1-(5-oxo-4,5-dihydro-1,2,4-oxadiazol-3-yl)ethylidene]-6,11-dihydrodibenzo[b,e]oxepine]
antihypertensive action (systolic blood pressure, tail cuff) [3]: antihypertensive action | EC50 [1]: 1.84 µM | antihypertensive action (blood pressure, telemetry) [2]: antihypertensive action

Structure (SMILES): CCc1nc2c(C)ccnc2n1Cc1ccc2c(c1)CCc1ccccc1N2C(C)c1nnn[nH]1 (stereo not shown) [Compound 26, 2-(2-ethyl-7-methyl-3H-imidazo[4,5-b]pyridin-3-yl)methyl-5-[1-(1H-tetrazol-5-yl)ethyl]-10,11-dihydro-5H-dibenzo[b,f]azepine]
antihypertensive action (systolic blood pressure, tail cuff) [3]: antihypertensive action

Structure (SMILES): CCc1nc2c(C)cc(C)nc2n1Cc1ccc2c(c1)CCc1ccccc1N2C(C)c1nnn[nH]1 (stereo not shown) [Compound 22, 2-(2-ethyl-5,7-dimethyl-3H-imidazo[4,5-b]pyridin-3-yl)methyl-5-[1-(1H-tetrazol-5-yl)ethyl]-10,11-dihydro-5H-dibenzo[b,f]azepine]
EC50 [1]: 1 µM | antihypertensive action (blood pressure, telemetry) [2]: antihypertensive action

Structure (SMILES): Cc1cc(C)c2nc(C3CC3)n(Cc3ccc4c(c3)CCc3ccccc3N4C(C)c3nnn[nH]3)c2n1 (stereo not shown) [Compound 71, 2-(2-cyclopropyl-5,7-dimethyl-3H-imidazo[4,5-b]pyridin-3-yl)methyl-5-[1-(1H-tetrazol-5-yl)ethyl]-10,11-dihydro-5H-dibenzo[b,f]azepine]
EC50 [1]: 0.235 µM | antihypertensive action (blood pressure, telemetry) [2]: antihypertensive action

Structure (SMILES): C/C(=C1\c2ccc(Cn3c(C4CC4)nc4c(Cl)ccnc43)cc2COc2ccccc21)c1noc(=O)[nH]1 [Compound 139, (Z)-8-(7-chloro-2-cyclopropyl-3H-imidazo[4,5-b]pyridin-3-yl)methyl-11-[1-(5-oxo-4,5-dihydro-1,2,4-oxadiazol-3-yl)ethylidene]-6,11-dihydrodibenzo[b,e]oxepine]
antihypertensive action (systolic blood pressure, tail cuff) [3]: antihypertensive action

Structure (SMILES): CCc1nc2c(C)cc(C)nc2n1Cc1ccc2c(c1)CCc1ccccc1C2=CC#N [Compound S15, [2-(2-ethyl-5,7-dimethyl-3H-imidazo[4,5-b]pyridin-3-yl)methyl-10,11-dihydro-5H-dibenzo[a,d]cyclohepten-5-ylidene]acetonitrile]
EC50 [1]: 1.25 µM | antihypertensive action (blood pressure, telemetry) [2]: antihypertensive action

Structure (SMILES): C/C(=C1/c2ccccc2CCc2cc(Cn3c(C4CC4)nc4c(Cl)ccnc43)ccc21)c1noc(=O)[nH]1 [Compound 95, (E)-2-(7-chloro-2-cyclopropyl-3H-imidazo[4,5-b]pyridin-3-yl)methyl-5-[1-(5-oxo-4,5-dihydro-1,2,4-oxadiazol-3-yl)ethylidene]-10,11-dihydro-5H-dibenzo[a,d]cycloheptene]
antihypertensive action (systolic blood pressure, tail cuff) [3]: antihypertensive action | EC50 [1]: 0.527 µM | antihypertensive action (blood pressure, telemetry) [2]: antihypertensive action

Structure (SMILES): CCc1nc2c(Cl)cc(C)nc2n1Cc1ccc2c(c1)CCc1ccccc1/C2=C(/C)c1noc(=O)[nH]1 [Compound 44, (E)-2-(7-chloro-2-ethyl-5-methyl-3H-imidazo[4,5-b]pyridin-3-yl)methyl-5-[1-(5-oxo-4,5-dihydro-1,2,4-oxadiazol-3-yl)ethylidene]-10,11-dihydro-5H-dibenzo[a,d]cycloheptene]
antihypertensive action (systolic blood pressure, tail cuff) [3]: antihypertensive action | EC50 [1]: 0.784 µM | antihypertensive action (blood pressure, telemetry) [2]: antihypertensive action

Structure (SMILES): C/C(=C1\c2ccc(Cn3c(C4CC4)nc4c(Cl)cccc43)cc2COc2ccccc21)c1noc(=O)[nH]1 [Compound 147, (Z)-8-(4-chloro-2-cyclopropylbenzimidazol-1-yl)methyl-11-[1-(5-oxo-4,5-dihydro-1,2,4-oxadiazol-3-yl)ethylidene]-6,11-dihydrodibenzo[b,e]oxepine]
EC50 [1]: 0.226 µM | antihypertensive action (blood pressure, telemetry) [2]: antihypertensive action

More lines, in order of falling EC50 [1], values ahead:

EC50 [1]: 1.02 µM
Structure (SMILES): CCc1nc2c(C)ccnc2n1Cc1ccc2c(c1)CCc1ccccc1/C2=C(/C)c1noc(=O)[nH]1 [Compound 42, (E)-2-(2-ethyl-7-methyl-3H-imidazo[4,5-b]pyridin-3-yl)methyl-5-[1-(5-oxo-4,5-dihydro-1,2,4-oxadiazol-3-yl)ethylidene]-10,11-dihydro-5H-dibenzo[a,d]cycloheptene]
antihypertensive action (systolic blood pressure, tail cuff) [3]: antihypertensive action | antihypertensive action (blood pressure, telemetry) [2]: antihypertensive action

EC50 [1]: 0.611 µM
Structure (SMILES): CCc1nc2c(Cl)cc(C)nc2n1Cc1ccc2c(c1)COc1ccccc1/C2=C(/C)c1noc(=O)[nH]1 [Compound 129, (Z)-8-(7-chloro-2-ethyl-5-methyl-3H-imidazo[4,5-b]pyridin-3-yl)methyl-11-[1-(5-oxo-4,5-dihydro-1,2,4-oxadiazol-3-yl)ethylidene]-6,11-dihydrodibenzo[b,e]oxepine]
antihypertensive action (blood pressure, telemetry) [2]: antihypertensive action

EC50 [1]: 0.55 µM
Structure (SMILES): CCOc1nc2c(Cl)ccnc2n1Cc1ccc2c(c1)COc1ccccc1/C2=C(/C)c1noc(=O)[nH]1 [Compound 138, (Z)-8-(7-chloro-2-ethoxy-3H-imidazo[4,5-b]pyridin-3-yl)methyl-11-[1-(5-oxo-4,5-dihydro-1,2,4-oxadiazol-3-yl)ethylidene]-6,11-dihydrodibenzo[b,e]oxepine]
antihypertensive action (blood pressure, telemetry) [2]: antihypertensive action

EC50 [1]: 0.348 µM
Structure (SMILES): CCc1nc2c(C)cc(C)nc2n1Cc1ccc2c(c1)COc1ccccc1/C2=C\c1noc(=O)[nH]1 [Compound 118, (Z)-8-(2-ethyl-5,7-dimethyl-3H-imidazo[4,5-b]pyridin-3-yl)methyl-11-(5-oxo-4,5-dihydro-1,2,4-oxadiazol-3-yl)methylene-6,11-dihydrodibenzo[b,e]oxepine]
antihypertensive action (blood pressure, telemetry) [2]: antihypertensive action

EC50 [1]: 0.323 µM
Structure (SMILES): CCOc1nc2c(C)cc(C)nc2n1Cc1ccc2c(c1)CCc1ccccc1/C2=C(/C)c1noc(=O)[nH]1 [Compound 86, (E)-2-(2-ethoxy-5,7-dimethyl-3H-imidazo[4,5-b]pyridin-3-yl)methyl-5-[1-(5-oxo-4,5-dihydro-1,2,4-oxadiazol-3-yl)ethylidene]-10,11-dihydro-5H-dibenzo[a,d]cycloheptene]
antihypertensive action (blood pressure, telemetry) [2]: antihypertensive action

EC50 [1]: 0.32 µM
Structure (SMILES): CCOc1nc2c(C)cc(C)nc2n1Cc1ccc2c(c1)COc1ccccc1/C2=C\c1noc(=O)[nH]1 [Compound 124, (Z)-8-(2-ethoxy-5,7-dimethyl-3H-imidazo[4,5-b]pyridin-3-yl)methyl-11-(5-oxo-4,5-dihydro-1,2,4-oxadiazol-3-yl)methylene-6,11-dihydrodibenzo[b,e]oxepine]
antihypertensive action (blood pressure, telemetry) [2]: antihypertensive action
